The values below come from patent publication US8178579B2, “Dioxanes and uses thereof” (President and Fellows of Harvard College, priority 2001, dated 2012).

The target in one test is T1, HDAC6 (Homo sapiens, UniProt Q9UBN7).
T1 sequence (Q9UBN7 1-1215): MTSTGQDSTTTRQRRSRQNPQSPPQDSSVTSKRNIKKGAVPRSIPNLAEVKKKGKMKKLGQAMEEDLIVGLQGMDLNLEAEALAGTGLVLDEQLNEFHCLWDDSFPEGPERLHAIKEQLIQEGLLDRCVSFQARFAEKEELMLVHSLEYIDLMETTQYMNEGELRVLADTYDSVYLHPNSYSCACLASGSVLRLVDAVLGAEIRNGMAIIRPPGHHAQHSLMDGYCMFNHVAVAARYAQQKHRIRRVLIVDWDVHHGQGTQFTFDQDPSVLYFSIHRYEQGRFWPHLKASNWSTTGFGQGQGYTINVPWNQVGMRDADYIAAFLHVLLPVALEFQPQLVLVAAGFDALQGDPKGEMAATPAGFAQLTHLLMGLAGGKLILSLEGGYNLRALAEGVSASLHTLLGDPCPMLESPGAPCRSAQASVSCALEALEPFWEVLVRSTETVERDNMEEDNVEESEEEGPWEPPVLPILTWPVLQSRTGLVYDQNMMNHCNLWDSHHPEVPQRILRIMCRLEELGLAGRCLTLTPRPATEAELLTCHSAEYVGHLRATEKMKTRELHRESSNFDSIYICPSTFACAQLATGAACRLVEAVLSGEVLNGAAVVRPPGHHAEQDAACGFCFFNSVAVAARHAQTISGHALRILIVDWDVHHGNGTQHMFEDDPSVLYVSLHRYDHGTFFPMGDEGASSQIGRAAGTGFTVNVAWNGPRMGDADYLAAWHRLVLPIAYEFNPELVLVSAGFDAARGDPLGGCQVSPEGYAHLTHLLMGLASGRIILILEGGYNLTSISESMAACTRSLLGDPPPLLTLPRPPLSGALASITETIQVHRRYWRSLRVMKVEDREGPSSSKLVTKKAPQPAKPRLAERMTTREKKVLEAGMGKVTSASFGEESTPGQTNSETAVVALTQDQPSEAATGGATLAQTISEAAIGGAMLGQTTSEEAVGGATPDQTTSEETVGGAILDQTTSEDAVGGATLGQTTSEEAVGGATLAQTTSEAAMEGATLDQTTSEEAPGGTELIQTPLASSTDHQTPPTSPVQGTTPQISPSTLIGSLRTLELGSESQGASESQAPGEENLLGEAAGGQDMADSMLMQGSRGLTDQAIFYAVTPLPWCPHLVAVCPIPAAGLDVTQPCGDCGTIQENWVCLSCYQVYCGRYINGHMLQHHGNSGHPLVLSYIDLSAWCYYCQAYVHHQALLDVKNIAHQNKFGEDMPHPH
Description: in vitro enzyme inhibition assay (Fluor de Lys deacetylation) of HDAC1, 4 and 6. Type of test: biochemical. Further details: endogenous in cells; host or cells: A549 cells. The conditions noted are these: in vitro enzyme inhibition (FIG. 13).

The test system of the next test is NIH-3T3 cells. Description: Transwell cell migration assay. The conditions noted are these: wild-type (Neo) and HDAC6-overexpressing cells, 22 h; tubacin 2-20 μM, niltubacin 20 μM. Type of test: cell-based, mouse. As for the experimental part: For Transwell migration assays, wild-type or HDAC6 overexpressing NIH-3T3 cells were seeded (150,000 cells/well) in the upper chamber (uncoated polycarbonate membrane, 6.5 mm, 8 μm) in DMEM+ media with compounds added as indicated. After incubation (22 hours), non-migrated cells were removed using cotton swabs and remaining cells stained in Harris Hematoxylin solution. For each treatment, cells within a region (spanning the maximum diameter) of three separate membranes were counted under low magnification on a Leitz Laborlux microscope. For DMSO treatments the average count was ˜600 cells/region. Images were obtained using a Hitachi HV-C12 CCD camera.

“Also recorded” adds a separate entry of the source.

As to `O=C(CCCCCCC(=O)Nc1ccc([C@@H]2OC(c3ccc(CO)cc3)C[C@H](CSc3nc(-c4ccccc4)c(-c4ccccc4)o3)O2)cc1)NO` (some centres unmarked) [tubacin], the “selectivity for HDAC6 over HDAC1 and HDAC4” value on HDAC6 stood at 3 fold. Further, in the test on NIH-3T3 cells, the cell migration result is “inhibited the migration of wild-type (Neo) NIH-3T3 cells; also recorded: inhibited the migration of both wild-type and HDAC6-overexpressing cells”.
